Where a name gives a salt, the structure may show the parent alone.
What follows are compounds tested on T1, 1N4R p-tau (assay: p-tau aggregation modulator screen of 1280-compound library (ThS fluorescence net change over 16 h)). Conditions: not given.
T1 construct: made in house; host or cells: E. coli (PIMAX system)
Assay type: biochemical
Parameters: key to PTAI>2SD: *: PTAI>2SD; key to PTAI>3SD: *: PTAI>3SD

Row | SMILES | ThS net change | PTAI>2SD
1 | CCN(CC)CCCC(C)Nc1c2ccc(Cl)cc2nc2ccc(OC)cc12.Cl.Cl.O.O (centres unmarked) [Quinacrine dihydrochloride hydrate] | 203 | –
2 | C=C[C@H]1CN2CC[C@H]1C[C@@H]2[C@@H](O)c1ccnc2ccc(OC)cc12.Cl.O [Quinidine hydrochloride monohydrate] | 282 | –
3 | O=C(c1ccc(OCCN2CCCCC2)cc1)c1c(-c2ccc(O)cc2)sc2cc(O)ccc12 [Raloxifene hydrochloride] | 133 | *
4 | O.O=P(O)(O)C(O)(Cc1cccnc1)P(=O)(O)O [Risedronic acid monohydrate] | 455 | –
5 | Cc1nc2n(c(=O)c1CCN1CCC(c3noc4cc(F)ccc34)CC1)CCCC2 [Risperidone] | 447 | –
6 | CCN(C)C(=O)Oc1cccc([C@H](C)N(C)C)c1 [Rivastigmine] | 462 | –
7 | CN(C)CCc1c[nH]c2ccc(Cn3cncn3)cc12 [Rizatriptan benzoate] | 473 | –

Same assay, conditions: 1280-compound library screen; ThS fluorescence net change over 16 h

Row | SMILES | ThS net change
8 | CCN1CCC[C@H]1CNC(=O)c1c(O)c(Cl)cc(Cl)c1OC [Raclopride] | 382
9 | CNC(=C[N+](=O)[O-])NCCSCc1ccc(CN(C)C)o1 [Ranitidine hydrochloride] | 405
10 | O=C(NC(Cc1cc(=O)[nH]c2ccccc12)C(=O)O)c1ccc(Cl)cc1 (centres unmarked) [Rebamipide] | 378
11 | NC[C@H]1O[C@H](OC2[C@@H](N)C[C@@H](N)[C@H](O)[C@H]2O[C@@H]2O[C@H](CO)[C@@H](O)[C@H]2O)[C@H](N)[C@@H](O)[C@@H]1O.O=S(=O)(O)O (some centres unmarked) [Ribostamycin sulfate salt] | 379
12 | CS(=O)(=O)c1ccc(C2=C(c3ccccc3)C(=O)OC2)cc1 [Rofecoxib] | 396
13 | COc1ccc(C2CNC(=O)C2)cc1OC1CCCC1 (centres unmarked) [Rolipram] | 406
14 | CCCN(CCC)CCc1cccc2c1CC(=O)N2 [Ropinirole HCl] | 388

Same assay, conditions: 1280-compound library screen; […]

Row | SMILES | ThS net change
15 | CCC1(CC)C(=O)C=CNC1=O [Pyrithyldione] | 404
16 | CCOc1ccccc1O[C@@H](c1ccccc1)[C@H]1CNCCO1.CS(=O)(=O)O [Reboxetine mesylate] | 386
17 | CC(=O)OCC(=O)NCCCOc1cccc(CN2CCCCC2)c1 [Roxatidine Acetate HCl] | 411

Same assay, conditions: flag: p-tau aggregation inhibitor, ThS net change more than 2 SD from mean

Row | SMILES | PTAI>2SD
18 | CO[C@H]1/C=C/O[C@@]2(C)Oc3c(C)c(O)c4c(O)c(c(/C=N/N5CCN(C)CC5)c(O)c4c3C2=O)NC(=O)/C(C)=C\C=C\[C@H](C)[C@H](O)[C@@H](C)[C@@H](O)[C@@H](C)[C@H](OC(C)=O)[C@@H]1C [Rifampicin] | *
19 | CO[C@H]1/C=C/O[C@@]2(C)Oc3c(C)c(O)c4c(O)c(c5c(nc6cc(C)ccn65)c4c3C2=O)NC(=O)/C(C)=C\C=C\[C@H](C)[C@H](O)[C@@H](C)[C@@H](O)[C@@H](C)[C@H](OC(C)=O)[C@@H]1C [Rifaximin] | *

Same assay, conditions: flag: p-tau aggregation inhibitor, ThS net change more than 3 SD from mean

Row | SMILES | PTAI>3SD
20 | Cc1cc(/C=C/c2ccc3cc(N(C)C)ccc3[n+]2C)c(C)n1-c1ccccc1 [Pyrvinium pamoate] | *
21 | CO[C@H]1/C=C/O[C@@]2(C)Oc3c(C)c(O)c4c(O)c(c(/C=N/N5CCN(C6CCCC6)CC5)c(O)c4c3C2=O)NC(=O)/C(C)=C\C=C\[C@H](C)[C@H](O)[C@@H](C)[C@@H](O)[C@@H](C)[C@H](OC(C)=O)[C@@H]1C [Rifapentine] | *

Same assay, conditions: library screen, ThS fluorescence net change over 16 h with p-tau

Row | SMILES | ThS net change
22 | Cc1cc(/C=C/c2ccc3cc(N(C)C)ccc3[n+]2C)c(C)n1-c1ccccc1 [Pyrvinium pamoate] | -379
23 | CO[C@H]1/C=C/O[C@@]2(C)Oc3c(C)c(O)c4c(c3C2=O)C2=NC3(CCN(CC(C)C)CC3)NC2=C(NC(=O)/C(C)=C\C=C\[C@H](C)[C@H](O)[C@@H](C)[C@@H](O)[C@@H](C)[C@H](OC(C)=O)[C@@H]1C)C4=O [Rifabutin] | 267
24 | CO[C@H]1/C=C/O[C@@]2(C)Oc3c(C)c(O)c4c(O)c(c(/C=N/N5CCN(C)CC5)c(O)c4c3C2=O)NC(=O)/C(C)=C\C=C\[C@H](C)[C@H](O)[C@@H](C)[C@@H](O)[C@@H](C)[C@H](OC(C)=O)[C@@H]1C [Rifampicin] | 158
25 | CO[C@H]1/C=C/O[C@@]2(C)Oc3c(C)c(O)c4c(O)c(c(/C=N/N5CCN(C6CCCC6)CC5)c(O)c4c3C2=O)NC(=O)/C(C)=C\C=C\[C@H](C)[C@H](O)[C@@H](C)[C@@H](O)[C@@H](C)[C@H](OC(C)=O)[C@@H]1C [Rifapentine] | 86
26 | CO[C@H]1/C=C/O[C@@]2(C)Oc3c(C)c(O)c4c(O)c(c5c(nc6cc(C)ccn65)c4c3C2=O)NC(=O)/C(C)=C\C=C\[C@H](C)[C@H](O)[C@@H](C)[C@@H](O)[C@@H](C)[C@H](OC(C)=O)[C@@H]1C [Rifaximin] | 112

Same assay, conditions: p-tau aggregation modulator screen of 1280-compound library; ThS fluorescence net change

Row | SMILES | ThS net change
27 | CCc1nc(N)nc(N)c1-c1ccc(Cl)cc1 [Pyrimethamine] | 354
28 | O=C(O)/C=C\C(=O)O.O=C(O)/C=C\C(=O)O.c1ccc2nc(N3CCNCC3)ccc2c1 [Quipazine dimaleate salt] | 377
29 | COC(=O)[C@H]1[C@H]2C[C@@H]3c4[nH]c5cc(OC)ccc5c4CCN3C[C@H]2C[C@@H](OC(=O)c2cc(OC)c(OC)c(OC)c2)[C@@H]1OC [Reserpine] | 355
30 | CC1=C(/C=C/C(C)=C/C=C/C(C)=C/C(=O)O)C(C)(C)CCC1 [Retinoic acid] | 374
31 | Cl.Nc1nc2ccc(OC(F)(F)F)cc2s1 [Riluzole hydrochloride] | 353
32 | CC(N)C12CC3CC(CC(C3)C1)C2 (centres unmarked) [Rimantadine Hydrochloride] | 365
33 | CC(NCCc1ccc(O)cc1)C(O)c1ccc(O)cc1 (centres unmarked) [Ritodrine hydrochloride] | 363
34 | CC[C@H]1OC(=O)[C@H](C)[C@@H](O[C@H]2C[C@@](C)(OC)[C@@H](O)[C@H](C)O2)[C@H](C)[C@@H](O[C@@H]2O[C@H](C)C[C@H](N(C)C)[C@H]2O)[C@](C)(O)C[C@@H](C)/C(=N\OCOCCOC)[C@H](C)[C@@H](O)[C@]1(C)O [Roxithromycin] | 366

Same assay, conditions: p-tau aggregation modulator screen of the compound library, ThS fluorescence net change

Row | SMILES | ThS net change
35 | OCCOCCN1CCN(C2=Nc3ccccc3Sc3ccccc32)CC1 [Quetiapine hemifumarate] | 424
36 | CCOC(=O)[C@H](CCc1ccccc1)N[C@@H](C)C(=O)N1Cc2ccccc2C[C@H]1C(=O)O [Quinapril HCl] | 417
37 | CCC1NC(=O)c2cc(S(N)(=O)=O)c(Cl)cc2N1 (centres unmarked) [Quinethazone] | 427
38 | COCCCOc1ccnc(C[S+]([O-])c2nc3ccccc3[nH]2)c1C (centres unmarked) [Rabeprazole Sodium salt] | 420
39 | CC(=O)SCC(Cc1ccccc1)C(=O)NCC(=O)OCc1ccccc1 (centres unmarked) [Racecadotril] | 462
40 | CNCC(O)c1ccc(O)c(O)c1 (centres unmarked) [Racepinephrine HCl] | 453
41 | Cc1nc2ccc(CN(C)c3ccc(C(=O)N[C@@H](CCC(=O)O)C(=O)O)s3)cc2c(=O)[nH]1 [Raltitrexed] | 443
42 | CCOC(=O)[C@H](CCc1ccccc1)N[C@@H](C)C(=O)N1[C@H](C(=O)O)C[C@@H]2CCC[C@@H]21 [Ramipril] | 436
43 | COc1ccccc1OCC(O)CN1CCN(CC(=O)Nc2c(C)cccc2C)CC1 (centres unmarked) [Ranolazine] | 414
44 | C#CCN[C@@H]1CCc2ccccc21 [Rasagiline] | 447
45 | CCN1CCC[C@H]1CNC(=O)c1c(OC)ccc(Br)c1OC.Cl [Remoxipride Hydrochloride] | 460
46 | CCOc1cc(CC(=O)N[C@@H](CC(C)C)c2ccccc2N2CCCCC2)ccc1C(=O)O [Repaglinide] | 481
47 | NC(=O)c1ncn([C@@H]2O[C@H](CO)[C@@H](O)[C@H]2O)n1 [Ribavirin] | 458
48 | CCC(=O)[C@@]1(C)[C@H](C)C[C@H]2[C@@H]3CCC4=CC(=O)C=C[C@]4(C)[C@H]3[C@@H](O)C[C@@]21C [Rimexolone] | 434
49 | CC(C)c1nc(CN(C)C(=O)N[C@H](C(=O)N[C@@H](Cc2ccccc2)C[C@H](O)[C@H](Cc2ccccc2)NC(=O)OCc2cncs2)C(C)C)cs1 [Ritonavir] | 538
50 | Cn1c([N+](=O)[O-])cnc1COC(N)=O [Ronidazole] | 445
51 | CN(CCOc1ccc(CC2SC(=O)NC2=O)cc1)c1ccccn1.Cl (centres unmarked) [Rosiglitazone Hydrochloride] | 476
52 | CN1CCN(c2c(F)cc3c(=O)c(C(=O)O)cn4c3c2SCC4)CC1 [Rufloxacin] | 476

From PMC7539012, “Hyperphosphorylated tau aggregation and cytotoxicity modulators screen identified prescription drugs linked to Alzheimer's disease and cognitive functions” (Scientific Reports, 2020)
